# Laboratory results from patent publication US20170333532A1, “ADP'ASE-ENHANCED APYRASE THERAPY FOR WOUNDS, MICROBIAL INFECTION, SEPSIS, AND HETEROTOPIC OSSIFICATION” (APT THERAPEUTICS, INC, priority 2014, published 2017).
# Key:
# Format in all cases: cell-based
# [1] = system: E. coli strain K12; assay: Effect of colistin, Apyrase Agent and combinations on E. coli growth curve
# Method: The effect of colistin, Apyrase agent, and combinations thereof were examined on E. coli growth.
# E. coli strain K12 was cultivated to a concentration of about 0.1 OD (A600 nm).
# The effect of colistin on E. coli growth. Replicate cultures were cultivated in the presence of colistin (at a concentration of 0.25 μg/ml) and various amounts of additional Apyrase Agent buffer (Tris-biffered saline; 1, 3, 10, or 30 μL).
# The effect of Apyrase Agent on E. coli growth. Replicate cultures were cultivated in the presence of Apyrase Agent at various concentrations (i.e. 1, 3, 10, or 30 U/ml).
# The effect of a combination of colistin and Apyrase Agent on E. coli growth. Replicate cultures were cultivated in the presence of colistin (at a concentration of […]) combined with Apyrase Agent at various concentrations (namely 1, 3, 10, or 30 U/ml).
# [2] = system: A. baumannii strain VBA9; assay: Killing of colistin-resistant A. baumannii VBA9 by colistin with Apyrase Agent, CFU count; details: colistin at less than 10-15 μg/ml, with Apyrase Agent 2 U/ml or alone
# Method: (§1) In this Example (and in subsequent Examples), the colistin is colistin sulfate salt, catalog number C4461 from Sigma-Aldrich (St. Louis, Mo.) and the apyrase is catalog number M0393L from New England BioLabs Inc. (Ipswich, Mass.).
# (§2) Approximately 10^5 to 10^6 CFU/ml of the colistin-resistant A. baumannii strain VBA9 is grown in the presence of combinations of 0 and 2 U/ml of Apyrase Agent and approximately 0 to 32 μg/ml of colistin. After incubation, the numbers of viable cells are determined by counting the colony forming units (CFU) on the plate (data provided as CFU/ml). Apyrase Agent improves the efficiency of killing A. baumannii strain VBA9 by colistin. Apyrase Agent increases the effectiveness of colistin at less than 10-15 μg/ml such that less than 10 to 100 CFU/ml are detected relative to greater than 10^6 to 10^7 in the presence of colistin alone.
# [3] = system: A. baumannii strain AC285; assay: Killing of colistin-resistant A. baumannii AC285 by colistin with Apyrase Agent, CFU count; details: colistin at less than 5-10 μg/ml, with Apyrase Agent 2 U/ml or alone
# Method: as §1
# as §2, with “strain AC285” for “strain VBA9”, “than 5-10” for “than 10-15”, “than 10^7” for “than 10^6”, “to 10^8” for “to 10^7”, “colistin alone at the same concentrations.” for “colistin alone.”
# [4] = system: Burkholderia vietnamiensis AU 10214; assay: Killing of Burkholderia vietnamiensis AU 10214 by colistin with Apyrase Agent, CFU count; details: colistin at less than 20 μg/ml, with Apyrase Agent 2 U/ml or alone
# Method: as §1
# (§3) Burkholderia vietnamiensis AU 10214 is grown in the presence of combinations of 0 and 2 U/ml of Apyrase Agent and approximately 0 to 20 μg/ml of colistin. After incubation, the numbers of viable cells are determined by counting the colony forming units (CFU) on the plate (data provided as CFU/ml). Apyrase Agent improves the efficiency of killing Burkholderia vietnamiensis AU 10214 by colistin. Apyrase Agent increases the effectiveness of colistin at less than 20 μg/ml such that less than 10 to 100 CFU/ml are detected relative to greater than 10^5 to 10^6 in the presence of colistin alone at the same concentrations.
# [5] = system: Burkholderia cepacia GUIa AU0019; assay: Killing of Burkholderia cepacia GUIa AU0019 by colistin with Apyrase Agent, CFU count; details: colistin at less than 10 μg/ml, with Apyrase Agent 2 U/ml or alone
# Method: as §1
# as §3, with “Burkholderia cepacia GUIa AU0019” for “Burkholderia vietnamiensis AU 10214”, “than 10” for “than 20”
# [6] = system: Burkholderia ambifaria AU5203; assay: Killing of Burkholderia ambifaria AU5203 by colistin with Apyrase Agent, CFU count; details: colistin at less than 20 μg/ml, with Apyrase Agent 2 U/ml or alone
# Method: as §1
# as §3, with “ambifaria AU5203” for “vietnamiensis AU 10214”
# [7] = system: Burkholderia cepacia GIIIb AU0055; assay: Killing of Burkholderia cepacia GIIIb AU0055 by colistin with Apyrase Agent, CFU count; details: colistin at less than 10 μg/ml, with Apyrase Agent 2 U/ml or alone
# Method: as §1
# Burkholderia cepacia GIIIb AU0055 is grown in the presence of combinations of 0 and 2 U/ml of Apyrase Agent and approximately 0 to 20 μg/ml of colistin. After incubation, the numbers of viable cells are determined by counting the colony forming units (CFU) on the plate (data provided as CFU/ml). Apyrase Agent improves the efficiency of killing Burkholderia cepacia GIIIb AU0055 by colistin. Apyrase Agent increases the effectiveness of colistin at less than 10 μg/ml such that less than 10 to 100 CFU/ml are detected relative to greater than 10^4 to 10^5 in the presence of colistin alone at the same concentrations.
# [8] = system: Burkholderia multivorans AU0801; assay: Killing of Burkholderia multivorans AU0801 by colistin with Apyrase Agent, CFU count; details: colistin at less than 10 μg/ml, with Apyrase Agent 2 U/ml or alone
# Method: as §1
# as §3, with “Burkholderia multivorans AU0801” for “Burkholderia vietnamiensis AU 10214”, “than 10” for “than 20”
substance,measurement,setting,value
colistin sulfate salt,effect on E coli growth,"[1]; colistin 0.25 μg/ml plus Apyrase Agent buffer 1, 3, 10, or 30 μL, 24 hour period, FIG. 1",no effect
same,effect on E. coli growth,"[1]; colistin 0.25 mg/ml alone or combined with Apyrase Agent 1, 3, 10, or 30 U/ml, FIG. 3",negligible effect
same,numbers of viable cells (CFU),[2],10^6 to 10^7 CFU/ml
same,numbers of viable cells (CFU),[3],10^7 to 10^8 CFU/ml
same,numbers of viable cells (CFU),[4],10^5 to 10^6 CFU/ml
same,numbers of viable cells (CFU),[5],10^5 to 10^6 CFU/ml
same,numbers of viable cells (CFU),[6],10^5 to 10^6 CFU/ml
same,numbers of viable cells (CFU),[7],10^4 to 10^5 CFU/ml
same,numbers of viable cells (CFU),[8],10^5 to 10^6 CFU/ml
